Test system: DMPK
Assay: DMPK knockdown by transfected antisense oligonucleotides in DM1 C15 myotubes at 0.5 nM and 50 nM
Type: cell-based
Conditions: 72 hours; for Normalized DMPK Remaining: relative to vehicle control = 1.00
In short: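 Seven-day-differentiated DM1 C15 myotubes transfected (Lipofectamine MessengerMax) with each oligonucleotide at 0.5 nM or 50 nM final, biological triplicates. After 72 h, DMPK mRNA quantified by qPCR, expressed relative to vehicle-only transfection set to 1.00.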

Row | Substance | Percent DMPK Reduction (0.5 nM oligonucleotide) [%] | Normalized DMPK Remaining (0.5 nM oligonucleotide) | Percent DMPK Reduction (50 nM oligonucleotide) [%] | Normalized DMPK Remaining (50 nM oligonucleotide)
1 | 391 (UCACCAACACGUCCCUCUCC; chemistry not given here) [compound 391] | 47.12 | 0.53 | 84.09 | 0.16
2 | 392 (UGCCUGCAGCAACUCCAUCC; chemistry not given here) [compound 392] | 13.99 | 0.86 | 49.75 | 0.50
3 | 393 (UUGGCCGGCGUGGGCCACCA; chemistry not given here) [compound 393] | -3.19 | 1.03 | 44.37 | 0.56
4 | 394 (GAGCCUCUGCCUCGCGUAGU; chemistry not given here) [compound 394] | 18.77 | 0.81 | 77.78 | 0.22
5 | 395 (AAGGGCGUCUGCCCAUAGAA; chemistry not given here) [compound 395] | 13.15 | 0.87 | 34.56 | 0.65
6 | 396 (ACAGACAAUAAAUACCGAGG; chemistry not given here) [compound 396] | -3.95 | 1.04 | 74.02 | 0.26
7 | 397 (GGACAGACAAUAAAUACCGA; chemistry not given here) [compound 397] | 22.57 | 0.77 | 52.51 | 0.47
8 | 398 (ACGUGUGCCUCUAGGUCCCG; chemistry not given here) [compound 398] | 16.47 | 0.84 | 77.73 | 0.22
9 | 399 (GGCACGAGACAGAACAACGG; chemistry not given here) [compound 399] | 16.10 | 0.84 | 68.01 | 0.32
10 | 400 (UGACCAGGUACAGGUAGUUC; chemistry not given here) [compound 400] | 22.00 | 0.78 | 63.73 | 0.36
11 | 401 (CUCUGCCGGGUGAGCACCUC; chemistry not given here) [compound 401] | 25.25 | 0.75 | 74.36 | 0.26
12 | 402 (GACAAUCUCCGCCAGGUAGA; chemistry not given here) [compound 402] | 23.70 | 0.76 | 49.82 | 0.50
13 | 403 (UCUCCGCCAGGUAGAAGCGC; chemistry not given here) [compound 403] | 19.59 | 0.80 | 66.52 | 0.33
14 | 404 (CUCUGCCUCGCGUAGUUGAC; chemistry not given here) [compound 404] | 16.61 | 0.83 | 91.21 | 0.09
15 | 405 (CUUUGGGCAGAUGGAGGGCC; chemistry not given here) [compound 405] | 28.06 | 0.72 | 67.50 | 0.33
16 | 406 (ACAGGUAGUUCUCAUCCUGG; chemistry not given here) [compound 406] | 20.51 | 0.79 | 85.36 | 0.15
17 | 407 (CCAAACUUGCTCAGCAGUGU; chemistry not given here) [compound 407] | 23.64 | 0.76 | 57.70 | 0.42
18 | 408 (UCGGGUUUGAUGUCCCUGUG; chemistry not given here) [compound 408] | 22.49 | 0.78 | 57.16 | 0.43
19 | 409 (GGCUUGCUGCCUUCCCAGGC; chemistry not given here) [compound 409] | -6.32 | 1.06 | 48.15 | 0.52
20 | 410 (UACAGGUAGUUCUCAUCCUG; chemistry not given here) [compound 410] | 19.83 | 0.80 | 72.51 | 0.27

Row | Substance | Percent DMPK Reduction (0.5 nM oligonucleotide) [%] | Normalized DMPK Remaining (0.5 nM oligonucleotide) | Percent DMPK Reduction (50 nM oligonucleotide) [%] | Normalized DMPK Remaining (50 nM oligonucleotide)
21 | 411 (UUGCCCAUCCACGUCAGGGC; chemistry not given here) [compound 411] | 22.23 | 0.78 | 67.15 | 0.33
22 | 412 (AGGUACAGGUAGUUCUCAUC; chemistry not given here) [compound 412] | 18.68 | 0.81 | 58.92 | 0.41
23 | 413 (GACAGACAAUAAAUACCGAG; chemistry not given here) [compound 413] | 18.26 | 0.82 | 38.07 | 0.62
24 | 414 (UAGAACAUUUCAUAGGCGAA; chemistry not given here) [compound 414] | 20.23 | 0.80 | 43.67 | 0.56
25 | 415 (AGGGCCUUUUAUUCGCGAGG; chemistry not given here) [compound 415] | 13.63 | 0.86 | 66.43 | 0.34
26 | 416 (GCCUCGCGUAGUUGACUGGC; chemistry not given here) [compound 416] | 12.98 | 0.87 | 91.10 | 0.09
27 | 417 (CCAGCAGGAUGUUGUCGGGU; chemistry not given here) [compound 417] | 40.29 | 0.60 | 89.59 | 0.10
28 | 418 (GUAGUUGACUGGCGAAGUUC; chemistry not given here) [compound 418] | 7.50 | 0.93 | 45.33 | 0.55
29 | 419 (UGCGGAUGGCCUCCAUCUCC; chemistry not given here) [compound 419] | 40.15 | 0.60 | 84.43 | 0.16
30 | 420 (ACAAUCUCCGCCAGGUAGAA; chemistry not given here) [compound 420] | 19.09 | 0.81 | 49.75 | 0.50
31 | 421 (GCGAAUACACCCAGCGCCCA; chemistry not given here) [compound 421] | 6.94 | 0.93 | 69.72 | 0.30
32 | 422 (GUAGUUCUCAUCCUGGAAGG; chemistry not given here) [compound 422] | 7.43 | 0.93 | 55.09 | 0.45
33 | 423 (GGCUCAGGCUCUGCCGGGUG; chemistry not given here) [compound 423] | 7.38 | 0.93 | 65.82 | 0.34
34 | 424 (CCAUUCACCAACACGUCCCU; chemistry not given here) [compound 424] | 39.26 | 0.61 | 86.83 | 0.13
35 | 425 (ACCAGGUACAGGUAGUUCUC; chemistry not given here) [compound 425] | 16.09 | 0.84 | 76.96 | 0.23
36 | 426 (CTGCAGUUUGCCCAUCCACG; chemistry not given here) [compound 426] | -10.69 | 1.11 | 60.08 | 0.40
37 | 427 (UUGUUCAUGAUCUUCAUGGC; chemistry not given here) [compound 427] | 14.13 | 0.86 | 45.23 | 0.55
38 | 428 (UUGAUGUCCCUGUGCACGU; chemistry not given here) [compound 428] | 6.92 | 0.93 | 43.07 | 0.57
39 | 429 (GCGGUCCAGCAGGAUGUUGU; chemistry not given here) [compound 429] | 38.84 | 0.61 | 83.64 | 0.16
40 | 430 (GUCUAUGGCCAUGACAAUCU; chemistry not given here) [compound 430] | -11.00 | 1.11 | 73.11 | 0.27

Source: patent US20230144436A1, “MUSCLE TARGETING COMPLEXES AND USES THEREOF FOR TREATING MYOTONIC DYSTROPHY” (Dyne Therapeutics, Inc., priority 2020, published 2023)
